Results published in patent US12331033B2, “Inhibitors of SARM1” (Disarm Therapeutics, Inc., priority 2020, dated 2025).

biological target: SARM1 (ARM-SAM-TIR) (Homo sapiens (Human), UniProt Q6SZW1); experiment: ARM-SAM-TIR SARM1 IC50 assay (NADase activity, NAD+ cleavage, RapidFire MS); format: biochemical; conditions: ARM-SAM-TIR lysate 5 μg/mL, 2 h pre-incubation, 5 μM NAD+, 2 hr room temperature
Description: This Example describes an assay of ARM-SAM-TIR NADase activity and use of this assay to measure the efficacy of compounds of Formula I or Formula I′ to block SARM1 mediated NAD+ cleavage. This assay was optimized in such a way as to characterize the efficacy of the compounds in Formula I or Formula I′ to inhibit SARM1 activity and to calculate an IC50 value for each compound. This assay makes use of full length SARM1, which encompasses the ARM, SAM and TIR domains.
NRK1-HEK293T cells were seeded onto 150 cm^2 plates at 20×10^6 cells per plate. The next day, the cells were transfected with 15 μg ARM-SAM-TIR expression plasmid, SEQ ID NO: 1.
The cultures were supplemented with 1 mM NR at time of transfection to minimize toxicity from ARM-SAM-TIR overexpression. Forty-eight hours after transfection, cells were harvested, pelleted by centrifugation at 1,000 rpm (Sorvall ST 16R centrifuge, Thermo Fisher), and washed once with cold PBS (0.01 M phosphate buffered saline NaCl 0.138 M; KCl 0.0027 M; pH 7.4). The cells were resuspended in PBS with protease inhibitors (cOmplete™ protease inhibitor cocktail, Roche product #11873580001) and cell lysates were prepared by sonication (Branson Sonifer 450, output=3, 20 episodes of stroke). The lysates were centrifuged (12,000×g for 10 min at 4° C.) to remove cell debris and the supernatants (containing ARM-SAM-TIR protein) were stored at −80° C. for later use in the in vitro ARM-SAM-TIR NADase assay (see below). Protein concentration was determined by the Bicinchoninic (BCA) method and used to normalize lysate concentrations.
The enzymatic assay was performed in a 384-well polypropylene plate in Dulbecco's PBS buffer in a final assay volume of 20 μL. ARM-SAM-TIR lysate with a final concentration of 5 μg/mL was pre-incubated with the respective compound at 1% DMSO final assay concentration over 2 h at room temperature. The reaction was initiated by addition of 5 μM final assay concentration of NAD+ as substrate. After a 2 hr room temperature incubation, the reaction was terminated with 40 μL of stop solution of 7.5% trichloroactetic acid in acetonitrile. The NAD+ and ADPR concentrations were analyzed by a RapidFire High Throughput Mass Spectrometry System (Agilent Technologies, Santa Clara, Calif.) using an API4000 triple quadrupole mass spectrometer (AB Sciex Framingham, Mass.).

SARM1 (ARM-SAM-TIR), sequence (Q6SZW1 other isoform, or with tags, fused parts or gaps): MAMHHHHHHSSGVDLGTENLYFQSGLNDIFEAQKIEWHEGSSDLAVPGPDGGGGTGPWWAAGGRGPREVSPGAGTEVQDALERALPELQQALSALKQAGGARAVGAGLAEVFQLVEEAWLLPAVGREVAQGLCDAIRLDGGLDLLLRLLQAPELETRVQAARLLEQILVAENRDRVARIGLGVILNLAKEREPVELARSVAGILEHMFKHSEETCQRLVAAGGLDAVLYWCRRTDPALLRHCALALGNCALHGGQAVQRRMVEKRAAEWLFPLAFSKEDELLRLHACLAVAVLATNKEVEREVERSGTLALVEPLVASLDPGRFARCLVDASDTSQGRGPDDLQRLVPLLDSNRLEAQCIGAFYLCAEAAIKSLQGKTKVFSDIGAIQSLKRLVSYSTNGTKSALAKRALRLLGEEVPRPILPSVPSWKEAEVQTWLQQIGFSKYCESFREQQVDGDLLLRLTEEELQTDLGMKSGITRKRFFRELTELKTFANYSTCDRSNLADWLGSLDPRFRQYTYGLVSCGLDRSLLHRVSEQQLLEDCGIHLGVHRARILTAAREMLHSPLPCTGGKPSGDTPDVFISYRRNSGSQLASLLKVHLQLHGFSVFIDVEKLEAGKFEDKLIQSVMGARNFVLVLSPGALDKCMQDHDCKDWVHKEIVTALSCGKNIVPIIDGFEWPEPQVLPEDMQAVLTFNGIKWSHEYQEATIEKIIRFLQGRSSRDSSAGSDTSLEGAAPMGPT

Row | Compound | IC50
1 | O=C(CN1C(=O)COc2cc(Cl)ccc21)Nc1cc(-c2ccncc2)n[nH]1 [Example 38] | > 30 µM
2 | CNC(=O)Cc1c(-c2ccncc2)n[nH]c1NC(=O)CCc1ccc(Cl)nc1 [Example 285] | < 5 µM
3 | Cc1ccc(OCC(=O)Nc2[nH]nc(-c3ccncc3)c2C)cc1 [Example 257] | 5 to 15 µM
4 | O=C(Cc1coc2cc(Cl)ccc12)Nc1nnc(-c2ccncc2)[nH]1 [Example 295] | < 5 µM
5 | O=C(CCc1ccc(Cl)cc1)Nc1nc(-c2ccncc2)c[nH]1 [Example 20] | < 5 µM
6 | O=C(Nc1nnc(-c2ccncc2)[nH]1)N1CCc2nc(Cl)ccc2C1 [Example 166] | < 5 µM
7 | O=C(C[C@H]1CCOc2cc(Cl)ncc21)Nc1nnc(-c2ccncc2)[nH]1 [Example 235] | 5 to 15 µM
8 | O=C(CCc1ccc(OC(F)F)cc1)Nc1nnc(-c2ccncc2)[nH]1 [Example 75] | < 5 µM
9 | CS(=O)(=O)c1ccc(CCC(=O)Nc2nnc(-c3ccncc3)[nH]2)cc1 [Example 126] | 15 to 30 µM
10 | CC(C)(C)OC(=O)N(CC(=O)Nc1cc(-c2ccncc2)n[nH]1)c1ccc(Cl)cc1 [Example 5] | < 5 µM
11 | O=C(CCc1ccc(Cl)cc1)Nc1[nH]nc(-c2ccncc2)c1Br [Example 167] | < 5 µM
12 | O=C(CCc1ccc(Cl)c(F)c1)Nc1nnc(-c2ccncc2)[nH]1 [Example 45] | < 5 µM
13 | CCOC(=O)Cc1c(-c2ccncc2)n[nH]c1NC(=O)CCc1ccc(Cl)cc1 [Example 229] | < 5 µM
14 | O=C(Nc1nnc(-c2ccncc2)[nH]1)[C@H]1CCc2ccccc2C1 [Example 88] | < 5 µM
15 | O=C(C[C@H]1CCOc2cc(Cl)ccc21)Nc1nnc(-c2ccncc2)[nH]1 [Example 208] | < 5 µM
16 | O=C(Nc1nnc(-c2ccncc2)[nH]1)NC1CCOc2cc(Cl)ncc21 (stereo not drawn) [Example 226] | < 5 µM
17 | O=C(NCc1ccc(Cl)nc1)Nc1cc(-c2ccncc2)n[nH]1 [Example 174] | < 5 µM
18 | Cc1c(-c2ccnnc2)n[nH]c1NC(=O)CCc1ccc(Cl)c(F)c1 [Example 154] | < 5 µM
19 | O=C(CCc1ccc(Cl)s1)Nc1nnc(-c2ccncc2)[nH]1 [Example 81] | < 5 µM
20 | Cc1c(-c2ccncc2)n[nH]c1NC(=O)CCc1ccc(Cl)s1 [Example 202] | < 5 µM
21 | CN(Cc1ccc(Cl)cc1)C(=O)Nc1nnc(-c2ccncc2)[nH]1 [Example 164] | < 5 µM
22 | CN[C@@H](Cc1ccc(Cl)cc1)C(=O)Nc1cc(-c2ccncc2)n[nH]1 [Example 176] | < 5 µM
23 | Cc1c(-c2ccncc2)n[nH]c1NC(=O)CCc1cc(F)ccc1F [Example 249] | < 5 µM
24 | Cc1nn(C)c(C)c1OCC(=O)Nc1[nH]nc(-c2ccncc2)c1C [Example 240] | 5 to 15 µM
25 | O=C(CCc1ccccc1Cl)Nc1nnc(-c2ccncc2)[nH]1 [Example 138] | < 5 µM

Row | Compound | IC50
26 | Cc1c(-c2ccnnc2)n[nH]c1NC(=O)C[C@@H]1CCOc2cc(Cl)ccc21 [Example 279] | < 5 µM
27 | O=C(CCc1ccc(Cl)c(Br)c1)Nc1nnc(-c2ccncc2)[nH]1 [Example 10] | < 5 µM
28 | CCc1c(-c2ccncc2)n[nH]c1NC(=O)CN1CCCc2sccc2C1=O [Example 256] | 5 to 15 µM
29 | O=C(CCc1ncc(C(F)(F)F)cn1)Nc1nnc(-c2ccncc2)[nH]1 [Example 57] | 15 to 30 µM
30 | O=C(Cc1ccc(Cl)cc1)Nc1nnc(-c2ccncc2)[nH]1 [Example 65] | < 5 µM
31 | O=C(Cc1ccccc1)Nc1nnc(-c2ccncc2)[nH]1 [Example 143] | 15 to 30 µM
32 | O=C(CCc1ccc(C(F)(F)F)cc1)Nc1[nH]nc(-c2ccnnc2)c1Br [Example 158] | < 5 µM
33 | O=C(CCc1ccc(C(F)(F)F)cc1)Nc1cc(-c2ccncc2)[nH]n1 [Example 62] | < 5 µM
34 | N#Cc1c(-c2ccnnc2)n[nH]c1NC(=O)CCc1ccc(Cl)nc1 [Example 304] | < 5 µM
35 | Cc1c(-c2ccncc2)n[nH]c1NC(=O)CCc1ccc(Cl)c(C#N)c1 [Example 270] | < 5 µM
36 | O=C(CCc1ccc(Cl)s1)Nc1nnc(-c2ccnnc2)[nH]1 [Example 12] | < 5 µM
37 | O=C(CC1CCOc2ccccc21)Nc1nnc(-c2ccncc2)[nH]1 (stereo not drawn) [Example 109] | < 5 µM
38 | O=C(Nc1nnc(-c2ccncc2)[nH]1)C1Cc2ccccc2C1 [Example 116] | 5 to 15 µM
39 | O=C(CCc1ccc(F)c(F)c1)Nc1cc(-c2ccncc2)n[nH]1 [Example 17] | < 5 µM
40 | O=C(C[C@H]1CCOc2ccccc21)Nc1nnc(-c2ccncc2)[nH]1 [Example 72] | < 5 µM
41 | O=C(Nc1nnc(-c2ccncc2)[nH]1)[C@H]1C[C@H](c2ccc(Cl)nc2)C1 [Example 280] | < 5 µM
42 | O=C(COc1ccc(Cl)cc1)Nc1nnc(-c2ccncc2)[nH]1 [Example 102] | 5 to 15 µM
43 | NC(=O)Cc1c(-c2ccncc2)n[nH]c1NC(=O)CCc1ccc(Cl)cc1 [Example 302] | < 5 µM
44 | Cn1nc(-c2ccncc2)nc1NC(=O)CCc1ccccc1 [Example 110] | > 30 µM
45 | CN(C)C(=O)Cc1c(-c2ccncc2)n[nH]c1NC(=O)CCc1ccc(Cl)cc1 [Example 301] | < 5 µM
46 | O=C(CCc1ccc(F)c(F)c1)Nc1nnc(-c2ccncc2)[nH]1 [Example 16] | < 5 µM
47 | Cc1c(-c2ccncc2)n[nH]c1NC(=O)c1ccc(OCC2CC2)cc1 [Example 252] | 5 to 15 µM
48 | O=C(CCc1ccc(Cl)s1)Nc1cc(-c2ccncc2)[nH]n1 [Example 54] | < 5 µM
49 | [2H]C([2H])([2H])c1c(-c2ccncc2)n[nH]c1NC(=O)CCc1ccc(Cl)nc1 [Example 282] | < 5 µM
50 | O=C(Nc1cc(-c2ccnnc2)n[nH]1)[C@H]1C[C@H](c2ccc(Cl)nc2)C1 [Example 210] | < 5 µM

Row | Compound | IC50
51 | O=C(CCc1ccc(Cl)cc1)Nc1cc(-c2ccncc2)cnc1O [Example 51] | > 30 µM
52 | O=C(CCc1ccc(Cl)cc1)Nc1nnc(-c2ccnnc2)[nH]1 [Example 53] | < 5 µM
53 | O=C(NCc1ccc(Cl)nc1)Nc1nnc(-c2ccncc2)[nH]1 [Example 165] | < 5 µM
54 | O=C(CCc1ccncc1)Nc1nnc(-c2ccncc2)[nH]1 [Example 112] | 15 to 30 µM
55 | Cc1c(-c2ccncc2)n[nH]c1N(C)C(=O)CCc1ccc(Cl)nc1 [Example 288] | 5 to 15 µM
56 | O=C(NCc1ccc(Cl)cc1)Nc1nnc(-c2ccncc2)[nH]1 [Example 92] | < 5 µM
57 | O=C(Nc1nnc(-c2ccncc2)[nH]1)N[C@@H]1CCOc2cc(Cl)ncc21 [Example 276] | 5 to 15 µM
58 | NS(=O)(=O)c1ccc(CCC(=O)Nc2nnc(-c3ccncc3)[nH]2)cc1 [Example 77] | 15 to 30 µM
59 | N#Cc1ccc(CCC(=O)Nc2nnc(-c3ccncc3)[nH]2)cc1 [Example 119] | < 5 µM
60 | N#Cc1cnccc1-c1cc(NC(=O)CCc2ccc(Cl)cc2)[nH]n1 [Example 238] | < 5 µM
61 | Cc1c(-c2ccncc2)n[nH]c1NC(=O)CCc1ccc(C(F)(F)F)nc1 [Example 261] | < 5 µM
62 | O=C(CCc1ccc(Cl)s1)Nc1cc(-c2ccnnc2)[nH]n1 [Example 24] | < 5 µM
63 | Cc1c(-c2ccncc2)n[nH]c1NC(=O)[C@@H](N)Cc1ccc(Cl)cc1 [Example 201] | < 5 µM
64 | Cc1c(-c2ccncc2)n[nH]c1NC(=O)CCc1ccc(Cl)nc1 [Example 27] | < 5 µM
65 | N#Cc1c(-c2ccncc2)c[nH]c1NC(=O)CCc1ccc(Cl)nc1 [Example 211] | < 5 µM
66 | N#Cc1ccc(CCC(=O)Nc2cc(-c3ccncc3)n[nH]2)cc1 [Example 47] | < 5 µM
67 | O=C(CC1CCOc2nc(Cl)ccc21)Nc1nnc(-c2ccncc2)[nH]1 (stereo not drawn) [Example 179] | < 5 µM
68 | O=C(C[C@H]1CCOc2cc(Cl)ncc21)Nc1nnc(-c2ccncc2)[nH]1 [Example 234] | < 5 µM
69 | O=C(CCc1ccc(Cl)cc1)Nc1nnc(-c2ccncc2Cl)[nH]1 [Example 59] | < 5 µM
70 | NC(=O)Cc1c(-c2ccncc2)n[nH]c1NC(=O)CCc1ccc(Cl)nc1 [Example 309] | < 5 µM
71 | [2H]C([2H])(C(=O)Nc1nnc(-c2ccnnc2)[nH]1)C([2H])([2H])c1ccc(Cl)cc1 [Example 230] | < 5 µM
72 | O=C(CCc1ccc(Cl)cc1)Nc1[nH]nc(-c2ccnnc2)c1C1CC1 [Example 273] | < 5 µM
73 | Cc1c(-c2ccncc2)n[nH]c1NC(=O)[C@@H](O)Cc1ccc(Cl)cc1 [Example 290] | < 5 µM
74 | O=C(CCc1ccc(C(F)(F)F)cn1)Nc1nnc(-c2ccncc2)[nH]1 [Example 85] | 5 to 15 µM
75 | O=C(CCc1ccc(C(F)(F)F)s1)Nc1cc(-c2ccncc2)n[nH]1 [Example 2] | < 5 µM
